Like-named read-outs stand apart in the source and are kept apart here.
Columns and labels:
[1] = test system: Rat Liver ER Neutral α-Glucosidase; assay: Endoplasmic reticulum α-glucosidase activity assay; assay type: biochemical
Description: Betulinic acid inhibits yeast α-glucosidase activity and interferes with N-linked glycan modifications to cell-surface intercellular adhesion molecule-1 (ICAM-1) in human lung carcinoma A549 cells in a similar manner to castanospermine, an inhibitor of endoplasmic reticulum α-glucosidases I and II [66]. […] Taken together, these considerations prompted us to evaluate a series of lupanes with amide function or polyamine chain 11, 12, 16, 18, and 22–26 for α-glucosidase inhibition. Initially, they were screened against α-glucosidase of S. cerevisiae as an accessible and high-throughput model. Confirmatory experiments were performed on isolated rough endoplasmic reticulum vesicles from rat liver, which contain neutral α-glucosidases I and II in a membrane-bound form.
Endoplasmic reticulum was isolated from hepatocytes of decapitated male Sprague-Dawley rats, which were starved overnight and sacrificed the next morning. All experiments were approved by Volgograd regional ethic committee. The whole procedure was performed at 4 °C. In brief, a fresh tissue sample from an animal was washed twice with 10 mL of PBS to remove residual blood. The tissue was placed on a paper towel in order to absorb excess liquid and blood clots, if present. It was cut further into small pieces (1.5–2 cm) and washed once more. […] Homogenate was centrifuged at 1000× g for 10 min at 4 °C. After removal of the floating lipid layer by aspiration, supernatant was separated and centrifuged at 12,000× g for 15 min. at 4 °C. The supernatant fraction, which is the post mitochondrial fraction (PMF), was used for isolation of rough endoplasmic reticulum (RER) enriched microsomes by precipitation with 8 mM CaCl2 added dropwise. The final concentration of CaCl2 was 7 mM. Resulting sample was centrifuged at 8000 g for 10 min. at 4 °C. The supernatant was discarded, and the pellet was suspended in isotonic extraction buffer (0.3 mL of buffer for each g of original tissue). The suspension was homogenized completely to afford RER enriched microsomes. In a 96-well flat transparent plate 25 µL of the isolated RER microsomes were incubated with 50 µL of test compounds in 67 mM PBS (pH 6.8) at 37 °C for 10 min. Then, p-nitrophenyl-α-D-glucopyranoside (Sigma #N1377, St. Louis, MO, USA) was added to 1 mM final concentration and increase in absorbance was recorded for 42 min at 405 nm wavelength with Infinite M200 PRO microplate reader (Tecan, Austria). Concentration of RER microsomes was adjusted to achieve an increase in optical density of ~0.2 in control samples after 30 min. of incubation. Test compounds were prepared as described above for the yeast α-glucosidase assay.

[2] = test system: 60 human tumor cell lines; assay: cells
MDA-MB-231/ATCC = assay: NCI-60 SRB screen: breast cancer MDA-MB-231/ATCC; assay type: cell-based; details: Homo sapiens, 48 h; MDA-MB-231/ATCC; single dose 10 µM; read-out: Percentage Cell Growth
HT29 = assay: NCI-60 SRB screen: colon cancer HT29; assay type: cell-based; details: Homo sapiens, HT-29, 48 h; HT29; single dose 10 µM; read-out: Percentage Cell Growth
HL-60(TB) = assay: NCI-60 SRB screen: leukemia HL-60(TB); assay type: cell-based; details: Homo sapiens, 48 h; HL-60(TB); single dose 10 µM; read-out: Percentage Cell Growth
SW-620 = assay: NCI-60 SRB screen: colon cancer SW-620; assay type: cell-based; details: Homo sapiens, 48 h; SW-620; single dose 10 µM; read-out: Percentage Cell Growth
UO-31 = assay: NCI-60 SRB screen: renal cancer UO-31; assay type: cell-based, human; details: UO-31; single dose 10 µM
NCI-H460 = assay: NCI-60 SRB screen: non-small cell lung cancer NCI-H460; assay type: cell-based; details: Homo sapiens, 48 h; NCI-H460; single dose 10 µM; read-out: Percentage Cell Growth
T-47D = assay: NCI-60 SRB screen: breast cancer T-47D; assay type: cell-based, human; details: T-47D; single dose 10 µM
CAKI-1 = assay: NCI-60 SRB screen: renal cancer CAKI-1; assay type: cell-based, human; details: CAKI-1; single dose 10 µM
RPMI-8226 = assay: NCI-60 SRB screen: leukemia RPMI-8226; assay type: cell-based; details: Homo sapiens, 48 h; RPMI-8226; single dose 10 µM; read-out: Percentage Cell Growth
ACHN = assay: NCI-60 SRB screen: renal cancer ACHN; assay type: cell-based, human; details: single dose 10 µM
SK-MEL-5 = assay: NCI-60 SRB screen: melanoma SK-MEL-5; assay type: cell-based, human; details: SK-MEL-5; single dose 10 µM
MCF7 = assay: NCI-60 SRB screen: breast cancer MCF7; assay type: cell-based; details: Homo sapiens, 48 h; MCF7; single dose 10 µM; read-out: Percentage Cell Growth
PC-3 = assay: NCI-60 SRB screen: prostate cancer PC-3; assay type: cell-based, human; details: PC-3; single dose 10 µM
HCT-116 = assay: NCI-60 SRB screen: colon cancer HCT-116; assay type: cell-based; details: Homo sapiens, 48 h; HCT-116; single dose 10 µM; read-out: Percentage Cell Growth
MOLT-4 = assay: NCI-60 SRB screen: leukemia MOLT-4; assay type: cell-based; details: Homo sapiens, 48 h; MOLT-4; single dose 10 µM; read-out: Percentage Cell Growth
SNB-75 = assay: NCI-60 SRB screen: CNS cancer SNB-75; assay type: cell-based, human; details: SNB-75; single dose 10 µM
SF-295 = assay: NCI-60 SRB screen: CNS cancer SF-295; assay type: cell-based, human; details: SF-295; single dose 10 µM
CCRF-CEM = assay: NCI-60 SRB screen: leukemia CCRF-CEM; assay type: cell-based; details: Homo sapiens, 48 h, single dose 10 µM, read-out: Percentage Cell Growth
HOP-92 = assay: NCI-60 SRB screen: non-small cell lung cancer HOP-92; assay type: cell-based, human; details: HOP-92; single dose 10 µM
U251 = assay: NCI-60 SRB screen: CNS cancer U251; assay type: cell-based; details: Homo sapiens, U-251, 48 h; U251; single dose 10 µM; read-out: Percentage Cell Growth

In the case of `C[C@H]1O[C@H](O[C@H]2[C@H](O)[C@@H](O)[C@@H](O[C@H]3[C@H](O)[C@@H](O)C(O)O[C@@H]3CO)O[C@@H]2CO)[C@H](O)[C@@H](O)[C@@H]1N[C@H]1C=C(CO)[C@@H](O)[C@H](O)[C@H]1O` (some centres unmarked) [Acarbose, reference compound], the “Rat Liver ER Neutral α-Glucosidase Inhibition, m ± SD” value ([1]; 10 μM) is reported as 5.68 ± 4.68%, the “Rat Liver ER Neutral α-Glucosidase Inhibition, m ± SD” value ([1]; 100 μM) is reported as 24.09 ± 6.48% and the “Rat Liver ER Neutral α-Glucosidase Inhibition, m ± SD” value ([1]; 1 mM) is reported as 74.55 ± 3.76%.

`C=C(C)[C@@H]1CC[C@]2(C(=O)NCCNCCN)CC[C@]3(C)[C@H](CC[C@@H]4[C@@]5(C)CC[C@H](O)C(C)(C)[C@@H]5CC[C@]43C)[C@@H]12` [Compound 7] showed an activity at 10 µM ([2]; read-out: Mean Growth, %) of 99.2% and an activity at 10 µM ([2]; read-out: Range of Growth, %) of 53.8 to 147%.

Compound `C=C(C)[C@@H]1CC[C@]2(C(=O)NCCCCCCN(CCCN)CCCN)CC[C@]3(C)[C@H](CC[C@@H]4[C@@]5(C)CC[C@H](O)C(C)(C)[C@@H]5CC[C@]43C)[C@@H]12` [Compound 8] has an activity at 10 µM (MDA-MB-231/ATCC) of 20.4%, an activity at 10 µM ([2]; read-out: Mean Growth, %) of 80.5% and an activity at 10 µM ([2]; read-out: Range of Growth, %) of 20.4 to 135%. It also gave an activity at 10 µM (HT29) of 24.3%.

`C=C(C)[C@@H]1CC[C@]2(C(N)=O)CC[C@]3(C)[C@H](CC[C@@H]4[C@@]5(C)CCC(=O)C(C)(C)[C@@H]5CC[C@]43C)[C@@H]12` [Compound 9] was tested, and the activity at 10 µM (HL-60(TB)) was 25.9%, the activity at 10 µM ([2]; read-out: Mean Growth, %) was 72% and the activity at 10 µM ([2]; read-out: Range of Growth, %) was 25.9 to 115%.

Compound `C=C(C)[C@@H]1CC[C@]2(C(=O)NCCCCCCN(CCCN)CCCN)CC[C@]3(C)[C@H](CC[C@@H]4[C@@]5(C)CCC(=O)C(C)(C)[C@@H]5CC[C@]43C)[C@@H]12` [Compound 13] has an activity at 10 µM ([2]; read-out: Mean Growth, %) of 105% and an activity at 10 µM ([2]; read-out: Range of Growth, %) of 85.8 to 118%.

`C=C(C)[C@@H]1CC[C@]2(C(=O)NCCN(CCNC(=O)OC(C)(C)C)C(=O)OC(C)(C)C)CC[C@]3(C)[C@H](CC[C@@H]4[C@@]5(C)CCC(=O)C(C)(C)[C@@H]5CC[C@]43C)[C@@H]12` [Compound 14] was tested, and the activity at 10 µM (SW-620) was 28.8%, the “Percentage Cell Growth” value (UO-31) was 17.41% and the activity at 10 µM (NCI-H460) was 20.6%. For the same compound, the activity at 10 µM (HL-60(TB)) was -14.3%, the “Percentage Cell Growth” value (T-47D) was 28.02% and the “Percentage Cell Growth” value (CAKI-1) was 18.57%. For the same compound, the activity at 10 µM (RPMI-8226) was 22.2%, the “Percentage Cell Growth” value (ACHN) was 23.51% and the “Percentage Cell Growth” value (SK-MEL-5) was −8.44%. For the same compound, the activity at 10 µM (MCF7) was 22.2%, the activity at 10 µM (MDA-MB-231/ATCC) was -33.8% and the “Percentage Cell Growth” value (PC-3) was 19.12%. For the same compound, the activity at 10 µM ([2]; read-out: Mean Growth, %) was 36.6%, the activity at 10 µM (HCT-116) was 17.5% and the activity at 10 µM (HT29) was 23.7%. For the same compound, the activity at 10 µM (MOLT-4) was 11.7%, the “Percentage Cell Growth” value (SNB-75) was 23.86% and the “Percentage Cell Growth” value (SF-295) was 31.97%. For the same compound, the activity at 10 µM (CCRF-CEM) was 14.9%, the “Percentage Cell Growth” value (HOP-92) was 8.07% and the activity at 10 µM (U251) was 27.9%.

— paper PMC7587962, “Evaluation of Cytotoxicity and α-Glucosidase Inhibitory Activity of Amide and Polyamino-Derivatives of Lupane Triterpenoids” (Molecules, 2020)
